According to patent US5922681A, “Endothelin antagonists” (Warner-Lambert Company, priority 1992, dated 1999):
Where “and” joins values, the source holds several entries; their conditions need not be identical. Equal values may be shown once.

Tests used:
[1] = molecular target: T1, ETA (rabbit renal artery vascular smooth muscle cells) (Oryctolagus cuniculus, UniProt A5A8K3); test: Endothelin receptor binding assay-A (ERBA-A), intact cell binding of [125I]-ET-1; settings: for IC50: rabbit renal artery vascular smooth muscle cells, [125I]-ET-1 25 pM
T1 construct: The cells used were rabbit renal artery vascular smooth muscle cells; endogenous in cells; host or cells: rabbit renal artery vascular smooth muscle cells
T1 sequence (A5A8K3 21-427): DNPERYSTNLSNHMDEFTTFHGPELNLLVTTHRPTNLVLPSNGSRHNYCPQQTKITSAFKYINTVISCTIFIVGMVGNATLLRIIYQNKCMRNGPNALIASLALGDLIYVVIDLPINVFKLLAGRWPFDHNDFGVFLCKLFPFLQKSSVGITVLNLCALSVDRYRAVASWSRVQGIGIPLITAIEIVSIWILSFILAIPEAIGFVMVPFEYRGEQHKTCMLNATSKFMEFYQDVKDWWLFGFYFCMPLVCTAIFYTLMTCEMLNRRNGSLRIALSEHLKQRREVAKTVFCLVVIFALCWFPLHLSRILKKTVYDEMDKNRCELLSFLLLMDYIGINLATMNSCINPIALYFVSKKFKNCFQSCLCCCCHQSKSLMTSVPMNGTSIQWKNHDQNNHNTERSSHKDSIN
Method: (§1) The compounds of Formula I are valuable antagonists of endothelin. […] Compounds of Formula I were tested for their ability to inhibit [^125 I]-ET-1([^125 I]-Endothelin-1) binding in a receptor assay according to the following procedures Doherty, A. M., et al, J. Cardiovascul. Pharmacol. 17(Suppl 7):S59-61 (1991) and Doherty, A. M., et al, Bio. Org. Med. Chem. Lett. in press (1992):
ENDOTHELIN RECEPTOR BINDING ASSAY-A (ERBA-A) INTACT CELL BINDING OF [^125 I]-ET-1
The cells used were rabbit renal artery vascular smooth muscle cells grown in a 48-well dish (1 cm^2) (confluent cells).
The growth media was Dulbeccos Modified Eagles/Ham's F12 which contained 10% fetal bovine serum and antibiotics (penicillin/streptomycin/fungizone).
The assay buffer was a medium 199 containing Hanks salts and 25 mM Hepes buffer (Gibco 380-2350AJ), supplemented with penicillin/streptomycin/fungizone (0.5%) and bovine serum albumin (1 mg/mL).
Amersham radioiodinated endothelin-1 [^125 I]-ET-1 was used at final concentration of 20,000 cpm/0.25 mL (25 pM).
Second, remove the assay buffers, place the dish on ice, and add 150 μL of cold assay buffer described above to each well. Third, add 50 μL each of cold [^125 I]-ET-1 and competing ligand to the solution (at the same time if possible). Next, place dish in a 37° C. water bath for about 2 hours and gently agitate the dish every 15 minutes. Discard the radioactive incubation mixture in the sink and wash wells three times with […] of cold phosphate buffered saline. Last, add […] of 0.25 molar sodium hydroxide, agitate for 1 hour on a rotator, and then transfer the sodium hydroxide extract to gamma counting tubes and count the radioactivity.

[2] = molecular target: T2, ETB (rat cerebellar membranes) (Rattus norvegicus, UniProt P21451); test: Endothelin receptor binding assay-B (ERBA-B), [125I]-ET-1 binding in rat cerebellar membranes; settings: for Selectivity ETA / ETB from Table I: ERBA-A versus ERBA-B; for IC50: rat cerebellar membranes, [125I]-ET-1 25 pM
T2 construct: thaw one aliquot of frozen rat cerebellar membranes; from tissue; host or cells: rat cerebellar membranes
T2 sequence (P21451 27-442): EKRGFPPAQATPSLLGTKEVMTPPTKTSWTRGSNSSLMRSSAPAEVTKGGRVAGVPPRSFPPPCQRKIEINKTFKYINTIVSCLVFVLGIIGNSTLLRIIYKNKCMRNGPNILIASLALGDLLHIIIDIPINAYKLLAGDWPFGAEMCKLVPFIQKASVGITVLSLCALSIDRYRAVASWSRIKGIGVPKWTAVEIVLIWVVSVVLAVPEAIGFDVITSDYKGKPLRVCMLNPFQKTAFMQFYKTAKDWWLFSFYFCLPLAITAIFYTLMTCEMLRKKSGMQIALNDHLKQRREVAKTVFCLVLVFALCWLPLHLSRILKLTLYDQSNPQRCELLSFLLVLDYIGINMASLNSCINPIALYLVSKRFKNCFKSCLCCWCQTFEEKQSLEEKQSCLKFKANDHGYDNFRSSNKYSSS
Method: as §1
ENDOTHELIN RECEPTOR BINDING ASSAY-B (ERBA-B) [^125 I]-ET-1 BINDING IN RAT CEREBELLAR MEMBRANES
The tissue is made up of 20 mM tris(hydroxy-methyl)aminomethane hydrochloride (Trizma) buffer, 2 mM ethylenediaminetetra acetate, 100 μM phenylmethylsulfonyl fluoride.
First, thaw one aliquot of frozen rat cerebellar membranes (2 mg protein in 0.5 mL). Next, add 0.5 mL membrane aliquot to 4.5 mL cold tissue buffer, polytron at 7,500 revolutions per minute for 10 seconds. Finally, dilute tissue suspension 1/100 (0.1 mL suspension+9.9 mL tissue buffer), polytron again, and place ice.
Medium 199 with Hank's salts plus 25 mM Hepes+1 mg/mL bovine serum albumin.
Amersham [^125 I]-ET-1 (aliquots of 2×10^6 cpm per […] aliquot of [^125 I]-ET-1 with 5.2 mL dilution buffer, place on ice until use (final concentration will be 20,000 cpm per tube, or 25 pM).
Add 50 μL each of cold [^125 ]-ET-1 and competing ligand to tubes on ice. Mix in 150 μL of tissue to each tube, vortex briefly, then tap to force all liquids to bottom (total assay volume=250 μL). Then place the tubes in a 37° C. water bath for 2 hours.
Add 2.5 mL cold wash buffer (50 mM Trizma buffer) to each tube, filter, and then wash tube with additional 2.5 mL wash buffer and add to filter. Finally, wash filters with an additional 2.5 mL of cold wash buffer.
Count filters for radioactivity in gamma counter.

[3] = molecular target: endothelin receptor (Human Placenta); test: [125I]-ET-1 receptor binding, Human Placenta
Method: as §1, with “Org.” for “Org. Med. Chem. Lett. in press (1992):”

[4] = molecular target: endothelin receptor (Rat Heart); test: [125I]-ET-1 receptor binding, Rat Heart
Method: as §1, with “Org.” for “Org. Med. Chem. Lett. in press (1992):”

## CC(Cc1c[nH]c2ccccc12)(NC(=O)OC1C2CC3CC(C2)CC1C3)C(=O)N(CCc1ccccc1)CC(=O)O (racemic) [Compound 13, (±)-N-[3-(1H-indol-3-yl)-2-methyl-1-oxo-2-[[(tricyclo[3.3.1.1^3,7]dec-2-yloxy)carbonyl]amino]-propyl]-N-(2-phenylethyl)glycine]
[1]
  inhibition at 10 µM: -0.2%
[2]
  inhibition at 10 µM: 72.3%
  Selectivity ETA / ETB from Table I: selective for ETB
  IC50: 4000 nM

## C[C@H]1CCCC[C@@H]1OC(=O)N[C@](C)(Cc1c[nH]c2ccccc12)C(=O)N[C@H](CC(=O)O)Cc1ccccc1 (relative stereo) [Compound 1, (1S-trans)-N-[α-methyl-N-[[(2-methyl-cyclohexyl)-oxy]carbonyl]-D-tryptophyl]-L-3-(phenylmethyl)-β-alanine]
[3]
  IC50: 0.72 µM
[1]
  IC50: 46000 nM
[2]
  IC50: 1500 nM
[4]
  IC50: 9.25 µM

## CC(Cc1c[nH]c2ccccc12)(NC(=O)OC1C2CC3CC(C2)CC1C3)C(=O)NC(CSCC(=O)O)Cc1ccccc1 (stereo not drawn) [Compound 2, [R-(R*,S*)]-[[2-[[3-(1H-indol-3-yl)-2-methyl-1-oxo-2-[[(tricyclo[3.3.1.1^3,7]dec-2-yloxy)carbonyl]-amino]propyl]amino]-3-phenylpropyl]thio]acetic acid]
[3]
  IC50: 9.88 µM
[4]
  IC50: 9.06 µM

## CC(Cc1c[nH]c2ccccc12)(NC(=O)OC1C2CC3CC(C2)CC1C3)C(=O)NC(CC(=O)O)Cc1ccccc1 (stereo not drawn) [Compound 3, [R-(R*,S*)]-β-[[3-(1H-indol-3-yl)-2-methyl-1-oxo-2-[[(tricyclo[3.3.1.1^3,7]dec-2-yloxy)carbonyl]-amino]propyl]amino]benzenebutanoic acid]
[3]
  IC50: 0.96 µM
[4]
  IC50: 7.91 µM

## C[C@](Cc1c[nH]c2ccccc12)(NC(=O)OC1C2CC3CC(C2)CC1C3)C(=O)NC(CC(=O)O)Cc1ccccc1 (stereo partly drawn) [Compound 5, N-[α-methyl-N-[(tricyclo[3.3.1.1^3,7]dec-2-yloxy)carbonyl]-D-tryptophyl]-D-3-(phenylmethyl)-β-alanine]
[3]
  IC50: 3.84 µM
[4]
  IC50: 34.5 µM

## CC(Cc1c[nH]c2ccccc12)(NC(=O)OC1C2CC3CC(C2)CC1C3)C(=O)NC(C=CC(=O)O)Cc1ccccc1 (stereo not drawn) [Compound 6, [R-[R*,S*-(E)]]-4-[[3-(1H-indol-3-yl)-2-methyl-1-oxo-2-[[(tricyclo[3.3.1.1^3,7]dec-2-yloxy)carbonyl]-amino]propyl]amino]-5-phenyl-2-pentenoic acid]
[2]
  IC50: 870 nM

## CC(Cc1c[nH]c2ccccc12)(NC(=O)OC1C2CC3CC(C2)CC1C3)C(=O)NC(CCC(=O)O)Cc1ccccc1 (stereo not drawn) [Compound 7, [R-(R*,S*)]-γ-[[3-(1H-indol-3-yl)-2-methyl-1-oxo-2-[[(tricyclo[3.3.1.1^3,7]dec-2-yloxy)carbonyl]-amino]propyl]amino]benzenepentanoic acid]
[2]
  IC50: 870 nM

## C[C@](Cc1c[nH]c2ccccc12)(NC(=O)OC1C2CC3CC(C2)CC1C3)C(=O)N(CCC(=O)O)CCc1ccccc1 (stereo partly drawn) [Compound 8, (R)-3-[[3-(1H-indol-3-yl) -2-methyl-1-oxo-2-[[(tricyclo[3.3.1.1^3,7]dec-2-yloxy)carbonyl]amino]-propyl](2-phenylethyl)amino]propanoic acid]
[1]
  inhibition at 10 µM: 25%
[2]
  IC50: 910 nM and 1800 nM

## C[C@](Cc1c[nH]c2ccccc12)(NC(=O)OC1C2CC3CC(C2)CC1C3)C(=O)NC(CC(=O)O)Cc1ccc(N)cc1 (stereo partly drawn) [Compound 9, L-3-[(4-aminophenyl)methyl]-N-[α-methyl-N-[(tricyclo[3.3.1.1^3,7]dec-2-yloxy)carbonyl]-D-tryptophyl]-β-alanine]
[1]
  ERBA-A % inhibition at 10 μM: 33.5%
[2]
  ERBA-B % inhibition at 10 μM: 9.4%

## Cc1[nH]c2ccccc2c1C[C@@H](NC(=O)OC1C2CC3CC(C2)CC1C3)C(=O)N[C@@H](Cc1ccccc1)C(=O)NCC(=O)O (stereo partly drawn) [Compound 10, N-[2-methyl-N-[(tricyclo[3.3.1.1^3,7]dec-2-yloxy)carbonyl]-D-tryptophyl]-L-phenylalanyl-glycine]
[1]
  inhibition at 10 µM: 45%
[2]
  inhibition at 10 µM: 39.7%

## CC(Cc1c[nH]c2ccccc12)(NC(=O)OC1C2CC3CC(C2)CC1C3)C(=O)NC(CC(=O)O)Cc1ccc([N+](=O)[O-])cc1 (stereo not drawn) [Compound 11, [R-(R*,S*)]-β-[[3-(1H-indol-3-yl)-2-methyl-1-oxo-2-[[(tricyclo[3.3.1.1^3,7]dec-2-yloxy)carbonyl]-amino]propyl]amino]-4-nitrobenzenebutanoicacid]
[1]
  ERBA-A % inhibition at 10 μM: 47.7%
[2]
  ERBA-B % inhibition at 10 μM: 51.4%

## C[C@](Cc1c[nH]c2ccccc12)(NC(=O)OC1C2CC3CC(C2)CC1C3)C(=O)N(CCc1ccccc1)CC(=O)O (stereo partly drawn) [Compound 12, N-[α-methyl-N-[(tricyclo[3.3.1.1^3,7]dec-2-yloxy)carbonyl]-D-tryptophyl]-N-(2-phenylethyl)-glycine]
[1]
  inhibition at 10 µM: 4.1%
[2]
  inhibition at 10 µM: 86%
  Selectivity ETA / ETB from Table I: selective for ETB
  IC50: 1800 nM

## CC(Cc1c[nH]c2ccccc12)(NC(=O)OC1C2CC3CC(C2)CC1C3)C(=O)NC(C=CC=CC(=O)O)Cc1ccccc1 (stereo not drawn) [Compound 14, [R-[R*,S*-(E,E)]]-6-[[3-(1H-indol-3-yl)-2-methyl-1-oxo-2-[[(tricyclo[3.3.1.1^3,7]dec-2-yloxy)-carbonyl]amino]propyl]amino]-7-phenyl-2,4-heptadienoic acid]
[1]
  ERBA-A % inhibition at 10 μM: 54.3%
[2]
  ERBA-B % inhibition at 10 μM: 39.8%

## CC(Cc1c[nH]c2ccccc12)(NC(=O)OC1C2CC3CC(C2)CC1C3)C(=O)NC(CCCCC(=O)O)Cc1ccccc1 (stereo not drawn) [Compound 15, [R-(R*,S*)]-ε-[[3-(1H-indol-3-yl)-2-methyl-1-oxo-2-[[(tricyclo[3.3.1.1^3,7]dec-2-yloxy)carbonyl]-amino]propyl]amino]benzeneheptanoic acid]
[1]
  ERBA-A % inhibition at 10 μM: 51.6%
[2]
  ERBA-B % inhibition at 10 μM: 36.5%

## C[C@](Cc1c[nH]c2ccccc12)(NC(=O)NC1CCCCC1)C(=O)O [Compound 16, N-[(cyclohexylamino)carbonyl]-α-methyl-D-tryptophan]
[1]
  IC50: 1500 nM
[2]
  IC50: > 10000 nM
